Test results published in patent US20230270119A1, “BIOSTIMULANT AND BIOPROTECTIVE PEPTIDES AND THEIR USE IN AGRICULTURE” (priority 2020, published 2023).

Legend:
[1] = test system: Spodoptera littoralis larvae; test: Bioassay on Spodoptera littoralis larvae fed with peptide-treated tomato leaves; assay type: in vivo; conditions: day 13, femtomolar concentration; for average weight of larvae: control 59 mg (FIG. 11A); for survival rate of larvae: control 100% (FIG. 11B)
Experimental: Briefly, S. littoralis larvae were grown in a climate chamber at 25° C., 70% relative humidity (RH), with a 16-hour light and 8-hour dark photoperiod and fed with an artificial diet until completion of the first moult. For the bioassays, 150 larvae for each thesis were grown on tomato leaves for the entire duration of the second instar to adapt them to the different diet. The newly moulted third-instar larvae up to the moult stage were fed with plants on which a composition comprising peptides PS1-70 and PS1-120 had been applied at 100 pM and 100 fM concentrations in 1×PBS buffer. Larvae fed with plants treated with 1×PBS buffer only were used as a control. Bioassays were carried out under the same environmental conditions, in 32-well plastic trays containing 1.5% (w/v) agar and 0.005% (w/v) methyl parahydroxybenzoate, which are useful for creating a humid environment for maintaining cell turgor of tomato leaves. Each experimental group consisted of 32 larvae. The survival of the larvae was monitored daily, and their weight every other day. […] A significant decrease in the survival of larvae fed with leaves of plants treated with the peptides of the invention compared to those fed with leaves of the control plants was also observed for both assays (FIGS. 10B and 10D). […] The same assay scheme was carried out by the present inventors by feeding S. littoralis larvae with leaves treated with the peptide PS1-70 and with peptides having the sequences SEQ ID NO. 3, 5, and 8 at femtomolar concentration. […] A significant decrease was also observed in the survival of larvae fed with peptide-treated leaves compared to those fed with the control leaves (FIG. 11B). […] 8, SEQ ID NO. 3, and SEQ ID NO. 5 (FIG. 11B).

Botrytis cinerea = Botrytis cinerea necrosis areas on treated detached tomato leaves; assay type: in vivo, Botrytis cinerea on Solanum lycopersicum; conditions: 100 fM, day 8, control 11.72 mm^2 (FIG. 13)
Experimental: (§1) For the performance of assays on the phytopathogenic Botrytis cinerea and Alternaria alternata fungi, the present inventors used spores of this microorganism obtained from cultures on solid PDA (Potato Dextrose Agar) sporulation substrate. The plates were inoculated with 20 μl of a conidial suspension at a concentration of 1×10^6 spores/ml and incubated for 15 days at 25° C. in the presence of diffused light, so as to obtain complete sporulation. The spores were then collected in 5 ml of sterile water and, in order to remove the mycelium, were filtered through glass wool, washed with sterile distilled water and collected by centrifugation at room temperature. The concentration of spores suitable for inoculation (10^5-10^7 spores/ml) was determined by the serial dilution method using a Burker cell counting chamber for spore counting.
(§2) The assay was carried out on a detached leaf by taking a compound leaf for each treated tomato plant and for each control plant. Each leaflet of the compound leaf was marked with 3 markers in order to guide the subsequent application of the spores and detection of the pathogen developing necrotic areas.
The leaves were treated by applying 2 μl of a composition comprising the peptides PS1-70 and PS1-120 of the invention at a concentration of 100 pM, 100 fM or 1×PBS for the control leaves. After 6 hours, the time necessary for the perception of the peptides, the leaves were detached from the plant and inoculations with 10 μl of spore solution were carried out in the internerve spaces and near the previously marked points. Monitoring was carried out by measuring the necrosis areas (expressed in mm^2) 1, 3, 5, 8 days after inoculation of the pathogen. The necrosis areas recorded on the control leaves were much larger than those detected on plants treated with the peptides of the invention. This difference increased as a function of the time elapsed since inoculation. The resistance inducing effect of the picomolar treatment is already statistically significant from the first day of inoculation of the pathogen up to the eighth day where values of 33 mm^2 were reached on the control leaves, unlike the treated leaves where values not exceeding 18 mm^2 were recorded for both peptides (FIG. 12A).

Alternaria alternata = Alternaria alternata necrosis areas on treated tomato leaves; assay type: in vivo; conditions: 100 fM, day 8, control 17 mm^2 (FIG. 14B)
Experimental: as §1, §2
The present inventors also performed assays aimed at determining the effects of exogenous application of the peptides of the invention on tomato plants against the development of the necrotrophic Alternaria alternata fungus (FIG. 14).
The positive effect of the treatment was statistically significant from day 1 of inoculation of the pathogen to day 8 where values of 24 mm^2 were reached on the control leaves, unlike the treated leaves where values of 8.4 and 8.0 mm^2 were recorded on leaves treated with the peptides PS1-70 and PS1-120 at a concentration of 100 fM (FIG. 14A); and values of 17 mm^2 were recorded on the control leaves and values of 8.3 mm^2, 7.9 mm^2, 8.9 mm^2, and 7.8 mm^2 were recorded on leaves treated with the peptides PS1-70, SEQ ID NO.8, SEQ ID NO.3 and SEQ ID NO.5, respectively, at a concentration of 100 fM (FIG. 14B).

CAT2, SAM and APX2 genes = test: Salt stress gene expression in tomato plants irrigated with 100 fM peptides; assay type: in vivo; conditions: femtomolar
Experimental: The analysis was carried out on the CAT2(A), SAM (B) and APX2 (C) genes. The asterisks indicate the statistical significance of the data by Student's t-test (*p<0.05; **p<0.01; ***p<0.001). […] An experiment was also set up to verify the efficiency of the peptides PS1-70, PS1-120 and SEQ ID NO.5, when administered at femtomolar concentrations, in promoting tolerance to a high salt stress condition.

[2] = Biometric parameters of tomato plants irrigated with peptides; assay type: in vivo; conditions: 100 fM
Experimental: FIG. 20 illustrates the effect of irrigation treatment with the peptides PS1-70, PS1-120 and SEQ ID NO.5 at a concentration of 100 fM on the biometric parameters of the tomato plant. […] The asterisks indicate the statistical significance of the data by Student's t-test (*p<0.05). A few biometric parameters are shown in FIG. 20, measured after 14 days of continuous salt stress (150 mM) and 15 days after irrigation with the peptides PS1-70, PS1-120 and SEQ ID NO.5 at 100 fM concentrations, and the respective controls.

With DDMQEEPKVKLHHEKG [SEQ ID NO. 5] the “average weight of larvae” value [1] was 21 mg, the “survival rate of larvae” value [1] was 15.62% and the necrosis areas (Botrytis cinerea) was 6.81 mm^2. The necrosis areas (Alternaria alternata) was 7.8 mm^2, the “activation of salt stress-responsive genes” value (CAT2, SAM and APX2 genes; 8 days after irrigation, 0 mM NaCl (FIG. 18A1, B1, C1)) was “able to activate a series of salt stress-responsive genes” and the “tolerance to salt / induction of responsive genes” value (CAT2, SAM and APX2 genes; irrigated 7 days with 150 mM NaCl (FIG. 18A2, B2, C2)) was “more salt-tolerant than the untreated control plants”. The “root surface (root area)” value ([2]; 14 days of salt stress 150 mM, 15 days after irrigation (FIG. 20A)) was “greater root surface” and the “growth (fresh weight) of the aerial part” value ([2]; absence of salt (FIG. 20B)) was “able to promote the growth of the aerial part of the plant”.
For “DDMQEEPKVKLHHEKGGDEKEKIIEKETPSQDI [SEQ ID NO. 8]”, the “average weight of larvae” value [1] was 13 mg, the “survival rate of larvae” value [1] was 15.62% and the necrosis areas (Botrytis cinerea) was 7.67 mm^2. For the same sequence, the necrosis areas (Alternaria alternata) was 7.9 mm^2.
For EKETPSQDI [SEQ ID NO. 3], the “average weight of larvae” value [1] was 24 mg, the “survival rate of larvae” value [1] was 43.75% and the necrosis areas (Botrytis cinerea) was 8.89 mm^2. It also gave a necrosis areas (Alternaria alternata) of 8.9 mm^2.
